Earlier results in US20210369737A1, “PROSTATE FUNCTION SUPPORT FORMULA” (Innovus Pharmaceuticals, Inc., priority 2017, published 2021).

Experiments:
prostate cancer cell = details: in vitro
prostate tumors = details: TRAMP mice
[1] = in vivo
PSA = details: clinical trials
prostate cancer cells [2] = test system: prostate cancer cells
prostate cancer cells [3] = details: in vitro
[4] = test system: human prostate tumor in vivo xenografts
prostate cancer = details: in vitro and in vivo
androgen receptor = target: T1, androgen receptor (Homo sapiens, UniProt P10275); details: in vitro
T1 sequence (P10275 1-920): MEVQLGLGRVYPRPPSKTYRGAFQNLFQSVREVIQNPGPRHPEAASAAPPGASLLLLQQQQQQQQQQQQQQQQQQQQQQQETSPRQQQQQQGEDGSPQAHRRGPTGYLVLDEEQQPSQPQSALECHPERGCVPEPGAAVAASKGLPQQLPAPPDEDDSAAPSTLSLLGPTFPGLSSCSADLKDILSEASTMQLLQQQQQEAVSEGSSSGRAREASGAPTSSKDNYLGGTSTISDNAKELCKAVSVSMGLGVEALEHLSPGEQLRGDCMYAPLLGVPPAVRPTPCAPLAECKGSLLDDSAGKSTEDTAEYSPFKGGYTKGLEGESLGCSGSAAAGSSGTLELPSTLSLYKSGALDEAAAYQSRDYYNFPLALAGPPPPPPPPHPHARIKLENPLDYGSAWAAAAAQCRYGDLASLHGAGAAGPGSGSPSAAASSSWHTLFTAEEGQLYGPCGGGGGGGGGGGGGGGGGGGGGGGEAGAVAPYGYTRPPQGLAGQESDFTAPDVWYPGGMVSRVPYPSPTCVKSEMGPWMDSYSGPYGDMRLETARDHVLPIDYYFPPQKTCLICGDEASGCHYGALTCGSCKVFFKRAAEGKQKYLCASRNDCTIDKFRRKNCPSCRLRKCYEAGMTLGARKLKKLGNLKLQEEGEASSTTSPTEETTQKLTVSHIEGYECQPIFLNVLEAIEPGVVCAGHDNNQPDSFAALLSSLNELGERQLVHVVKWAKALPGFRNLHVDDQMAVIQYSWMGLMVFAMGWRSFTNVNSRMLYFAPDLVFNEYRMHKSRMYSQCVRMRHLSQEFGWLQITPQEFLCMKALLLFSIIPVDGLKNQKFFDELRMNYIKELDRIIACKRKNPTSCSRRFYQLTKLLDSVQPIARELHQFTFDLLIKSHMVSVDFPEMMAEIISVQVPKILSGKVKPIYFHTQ

[5] = test system: prostate cancer and BPH cells; details: in vitro

CC[C@H](CC[C@@H](C)[C@H]1CC[C@H]2[C@@H]3CC=C4C[C@@H](O)CC[C@]4(C)[C@H]3CC[C@]12C)C(C)C [Beta-sitosterols, Beta-Sitosterol]
levels of DHT (BPH; clinical): decrease levels of DHT | urinary flow (BPH; clinical): significantly improve urinary flow | maintenance of improvements in follow-up (BPH; follow-up study, observation): 18 months | symptom scores (BPH; versus placebo, after three and six months of treatment): significant decrease in symptom scores

O=C(O[C@@H]1Cc2c(O)cc(O)cc2O[C@@H]1c1cc(O)c(O)c(O)c1)c1cc(O)c(O)c(O)c1 [EGCG]
androgen antagonism (prostate cancer cell): acts as an anti-androgen antagonist | prostate cancer cell proliferation and PSA production (prostate cancer cell): suppresses prostate cancer cell proliferation and production of prostate-specific antigen (PSA) | tumor size and development of prostate tumors (prostate tumors): reduces tumor size and delays development of prostate tumors

CC(C)=CCC/C(C)=C/C=C/C(C)=C/C=C/C(C)=C/C=C/C=C(C)/C=C/C=C(C)/C=C/C=C(\C)CCC=C(C)C [Lycopene]
safety status [1]: generally recognized as safe (GRAS) | PSA levels (PSA): reduction of PSA levels | antitumorigenic effect (prostate cancer cells [2]; animal studies): antitumorigenic effect | antioxidant response, proliferation, apoptosis, metastatic capacity of prostate cells (prostate cancer cells [2]; in vitro and in vivo): enhance the antioxidant response of prostate cells, inhibit proliferation, demonstrate chemopreventive effect induce apoptosis and decrease the metastatic capacity of prostate cancer cells

O=c1c(O)c(-c2ccc(O)c(O)c2)oc2cc(O)cc(O)c12 [Quercetin, 2-(3,4-dihydroxyphenyl)-3,5,7-trihydroxy-4H-chromen-4-one]
apoptosis and caspase activation (prostate cancer cells [3]): promoted prostate cancer cells apoptosis and caspase activation | prostate cancer cell proliferation (prostate cancer cells [3]): inhibits prostate cancer cell proliferation | prostate weight and anti-tumor activity ([4]; in vivo, in combination with finasteride): effective in vivo in combination with finasteride to reduce prostate weight and anti-tumor activity | effect on human prostate tumor xenografts ([4]; mice): has an effect on human prostate tumor in vivo xenografts | symptoms in CP/CPPS (CP/CPPS; clinical): symptomatic improvement | IPSS (CP/CPPS; randomized, double-blind, placebo controlled clinical trial): decrease in IPSS

[Se] [Selenium]
prostate cancer risk, tumor progression, apoptosis (prostate cancer): reduce risk of prostate cancer, suppress tumor progression and cell apoptosis | levels of p53 (androgen receptor): increase levels of p53 | activity of the androgen receptor (androgen receptor; prostate cancer cells): decrease the activity of the androgen receptor

[Zn] [Zinc]
apoptosis and antiproliferative effects [5]: induces apoptosis and antiproliferative effects

Vitamin E
prostate cancer risk, tumor progression, apoptosis (prostate cancer): reduce risk of prostate cancer, suppress tumor progression and cell apoptosis
